Reference: patent publication US20190307843A1, “SINGLE DOSE METHODS FOR PREVENTING AND TREATING FUNGAL INFECTIONS” (Cidara Therapeutics, Inc., priority 2016, published 2019)
Read-outs that look alike come from different tables or passages of the source. Starred links: 1 amine or outer side, 2 acyl side, 3 side chain; linkers in the order of their positions; H or OH if unused. Positions of bridges follow the written chain, without caps; N, C: chain ends. Non-standard residues stand in square brackets, D forms with d. Residues, ends and D or L forms follow the SMILES beside them. *: point of attachment. Orn(4R-OH,5R-OCH2CH2NMe3+) = C[N+](C)(C)CCO[C@@H](N[*:3])[C@H](O)C[C@H](N[*:1])C(=O)[*:2]; pTerphenylCO(4''-OnC5H11) = CCCCCOc1ccc(-c2ccc(-c3ccc(C(=O)*)cc3)cc2)cc1; hTyr(3S-OH,4S-OH) = N[C@H](C(=O)O)[C@H](O)[C@@H](O)c1ccc(O)cc1; Pro(3S-OH,4S-Me) = C[C@H]1CN[C@H](C(=O)O)[C@H]1O; Hyp = O=C(O)[C@@H]1C[C@@H](O)CN1

Tested on: Candida auris strains
Assay: Candida auris antifungal susceptibility testing (CLSI M27-A3), 38 strains
Format: cell-based
Conditions: Candidozyma auris, read-out: MIC

## CCCCCOc1ccc(-c2ccc(-c3ccc(C(=O)N[C@H]4C[C@@H](O)[C@@H](OCC[N+](C)(C)C)NC(=O)[C@@H]5[C@@H](O)[C@@H](C)CN5C(=O)[C@H]([C@@H](C)O)NC(=O)[C@H]([C@H](O)[C@@H](O)c5ccc(O)cc5)NC(=O)[C@@H]5C[C@@H](O)CN5C(=O)[C@H]([C@@H](C)O)NC4=O)cc3)cc2)cc1 [CD101] ({pTerphenylCO(4''-OnC5H11)}-[Orn(4R-OH,5R-OCH2CH2NMe3+)]T[Hyp][hTyr(3S-OH,4S-OH)]T[Pro(3S-OH,4S-Me)]; lactam 1-C)
24 h, strain 1 VPCI 669/P/12, 24 h
  MIC: 0.5 µg/mL
24 h, strain 2 VCPI 671/P/12, 24 h
  MIC: 0.5 µg/mL
24 h, strain 3 VCPI 674/P/12, 24 h
  MIC: 0.25 µg/mL
24 h, strain 4 VCPI 683/P/12, 24 h
  MIC: 0.5 µg/mL
24 h, strain 5 VCPI 692/P/12, 24 h
  MIC: 0.5 µg/mL
24 h, strain 6 VCPI 712/P/12, 24 h
  MIC: 0.25 µg/mL
24 h, strain 7 VCPI 471/P/13, 24 h
  MIC: 0.5 µg/mL
24 h, strain 8 VCPI 475/P/13, 24 h
  MIC: 0.5 µg/mL
24 h, strain 9 VCPI 478/P/13, 24 h
  MIC: 0.25 µg/mL
24 h, strain 10 VCPI 479/P/13, 24 h
  MIC: 0.25 µg/mL
24 h, strain 11 VCPI 480/P/13, 24 h
  MIC: 0.25 µg/mL
24 h, strain 12 VCPI 482/P/13, 24 h
  MIC: 0.25 µg/mL
24 h, strain 13 VCPI 483/P/13, 24 h
  MIC: 0.25 µg/mL
24 h, strain 14 VCPI 1130/P/13, 24 h
  MIC: 0.5 µg/mL
24 h, strain 15 VCPI 1132/P/13, 24 h
  MIC: 0.5 µg/mL
24 h, strain 16 VCPI 1133/P/13, 24 h
  MIC: 16 µg/mL
24 h, strain 17 VCPI 105/P/14, 24 h
  MIC: 0.25 µg/mL
24 h, strain 18 VCPI 107/P/14, 24 h
  MIC: 0.125 µg/mL
24 h, strain 19 VCPI 510/P/14, 24 h
  MIC: 0.25 µg/mL
24 h, strain 20 VCPI 511/P/14, 24 h
  MIC: 0.25 µg/mL
24 h, strain 21 VCPI 512/P/14, 24 h
  MIC: 0.25 µg/mL
24 h, strain 22 VCPI 513/P/14, 24 h
  MIC: 0.5 µg/mL
24 h, strain 23 VCPI 514/P/14, 24 h
  MIC: 0.5 µg/mL
24 h, strain 24 VCPI 250/P/14, 24 h
  MIC: 0.25 µg/mL
24 h, strain 25 VCPI 265/P/14, 24 h
  MIC: 16 µg/mL
24 h, strain 26 VCPI 266/P/14, 24 h
  MIC: 0.5 µg/mL
24 h, strain 27 VCPI 462/P/14, 24 h
  MIC: 16 µg/mL
24 h, strain 28 VCPI 463/P/14, 24 h
  MIC: 0.125 µg/mL
24 h, strain 29 VCPI 467/P/14, 24 h
  MIC: 0.25 µg/mL
24 h, strain 30 VCPI 471a/P/14, 24 h
  MIC: 16 µg/mL
24 h, strain 31 VCPI 478/P/14, 24 h
  MIC: 0.5 µg/mL
24 h, strain 32 VCPI 518/P/14, 24 h
  MIC: 0.5 µg/mL
24 h, strain 33 VCPI 550/P/14, 24 h
  MIC: 0.5 µg/mL
24 h, strain 34 VCPI 714/P/14, 24 h
  MIC: 0.25 µg/mL
24 h, strain 35 VCPI 717/P/14, 24 h
  MIC: 0.25 µg/mL
24 h, strain 36 VCPI 1060/P/14, 24 h
  MIC: 0.25 µg/mL
24 h, strain 37 VCPI 74/P/15, 24 h
  MIC: 0.25 µg/mL
24 h, strain 38 VCPI 213/P/15, 24 h
  MIC: 0.25 µg/mL
48 h, strain 1 VPCI 669/P/12, 48 h
  MIC: 0.5 µg/mL
48 h, strain 2 VCPI 671/P/12, 48 h
  MIC: 0.5 µg/mL
48 h, strain 3 VCPI 674/P/12, 48 h
  MIC: 0.25 µg/mL
48 h, strain 4 VCPI 683/P/12, 48 h
  MIC: 0.5 µg/mL
48 h, strain 5 VCPI 692/P/12, 48 h
  MIC: 0.5 µg/mL
48 h, strain 6 VCPI 712/P/12, 48 h
  MIC: 0.25 µg/mL
48 h, strain 7 VCPI 471/P/13, 48 h
  MIC: 0.5 µg/mL
48 h, strain 8 VCPI 475/P/13, 48 h
  MIC: 0.5 µg/mL
48 h, strain 9 VCPI 478/P/13, 48 h
  MIC: 0.25 µg/mL
48 h, strain 10 VCPI 479/P/13, 48 h
  MIC: 0.25 µg/mL
48 h, strain 11 VCPI 480/P/13, 48 h
  MIC: 0.25 µg/mL
48 h, strain 12 VCPI 482/P/13, 48 h
  MIC: 0.25 µg/mL
48 h, strain 13 VCPI 483/P/13, 48 h
  MIC: 0.25 µg/mL
48 h, strain 14 VCPI 1130/P/13, 48 h
  MIC: 0.25 µg/mL
48 h, strain 15 VCPI 1132/P/13, 48 h
  MIC: 0.25 µg/mL
48 h, strain 16 VCPI 1133/P/13, 48 h
  MIC: > 16 µg/mL
48 h, strain 17 VCPI 105/P/14, 48 h
  MIC: 0.25 µg/mL
48 h, strain 18 VCPI 107/P/14, 48 h
  MIC: 0.125 µg/mL
48 h, strain 19 VCPI 510/P/14, 48 h
  MIC: 0.25 µg/mL
48 h, strain 20 VCPI 511/P/14, 48 h
  MIC: 0.25 µg/mL
48 h, strain 21 VCPI 512/P/14, 48 h
  MIC: 0.25 µg/mL
48 h, strain 22 VCPI 513/P/14, 48 h
  MIC: 0.5 µg/mL
48 h, strain 23 VCPI 514/P/14, 48 h
  MIC: 0.5 µg/mL
48 h, strain 24 VCPI 250/P/14, 48 h
  MIC: 0.25 µg/mL
48 h, strain 25 VCPI 265/P/14, 48 h
  MIC: > 16 µg/mL
48 h, strain 26 VCPI 266/P/14, 48 h
  MIC: 0.25 µg/mL
48 h, strain 27 VCPI 462/P/14, 48 h
  MIC: > 16 µg/mL
48 h, strain 28 VCPI 463/P/14, 48 h
  MIC: 0.125 µg/mL
48 h, strain 29 VCPI 467/P/14, 48 h
  MIC: 0.25 µg/mL
48 h, strain 30 VCPI 471a/P/14, 48 h
  MIC: > 16 µg/mL
48 h, strain 31 VCPI 478/P/14, 48 h
  MIC: 1 µg/mL
48 h, strain 32 VCPI 518/P/14, 48 h
  MIC: 0.5 µg/mL
48 h, strain 33 VCPI 550/P/14, 48 h
  MIC: 1 µg/mL
48 h, strain 34 VCPI 714/P/14, 48 h
  MIC: 0.25 µg/mL
48 h, strain 35 VCPI 717/P/14, 48 h
  MIC: 0.25 µg/mL
48 h, strain 36 VCPI 1060/P/14, 48 h
  MIC: 0.25 µg/mL
